Assay results taken from ChEMBL document CHEMBL1150017, “A convenient synthesis of sulfated and sialyl oligosaccharides as potential ligands for CD22 adhesion protein” (Bioorg Med Chem Lett, 1995).
The source made the active and inactive calls. No cut-off for these calls is given here.

What was measured:
[1] = target: B-cell receptor CD22 (Homo sapiens) (UniProt P20273); experiment: Binding affinity against CD22 adhesion protein;no effect
[2] = target: B-cell receptor CD22 (Homo sapiens) (UniProt P20273); experiment: Binding affinity against CD22 adhesion protein in ELISA competition assay;no effect
[3] = target: B-cell receptor CD22 (Homo sapiens) (UniProt P20273); experiment: Binding affinity against CD22 adhesion protein; no effect

Sequence of B-cell receptor CD22 (Homo sapiens) (P20273 whole entry): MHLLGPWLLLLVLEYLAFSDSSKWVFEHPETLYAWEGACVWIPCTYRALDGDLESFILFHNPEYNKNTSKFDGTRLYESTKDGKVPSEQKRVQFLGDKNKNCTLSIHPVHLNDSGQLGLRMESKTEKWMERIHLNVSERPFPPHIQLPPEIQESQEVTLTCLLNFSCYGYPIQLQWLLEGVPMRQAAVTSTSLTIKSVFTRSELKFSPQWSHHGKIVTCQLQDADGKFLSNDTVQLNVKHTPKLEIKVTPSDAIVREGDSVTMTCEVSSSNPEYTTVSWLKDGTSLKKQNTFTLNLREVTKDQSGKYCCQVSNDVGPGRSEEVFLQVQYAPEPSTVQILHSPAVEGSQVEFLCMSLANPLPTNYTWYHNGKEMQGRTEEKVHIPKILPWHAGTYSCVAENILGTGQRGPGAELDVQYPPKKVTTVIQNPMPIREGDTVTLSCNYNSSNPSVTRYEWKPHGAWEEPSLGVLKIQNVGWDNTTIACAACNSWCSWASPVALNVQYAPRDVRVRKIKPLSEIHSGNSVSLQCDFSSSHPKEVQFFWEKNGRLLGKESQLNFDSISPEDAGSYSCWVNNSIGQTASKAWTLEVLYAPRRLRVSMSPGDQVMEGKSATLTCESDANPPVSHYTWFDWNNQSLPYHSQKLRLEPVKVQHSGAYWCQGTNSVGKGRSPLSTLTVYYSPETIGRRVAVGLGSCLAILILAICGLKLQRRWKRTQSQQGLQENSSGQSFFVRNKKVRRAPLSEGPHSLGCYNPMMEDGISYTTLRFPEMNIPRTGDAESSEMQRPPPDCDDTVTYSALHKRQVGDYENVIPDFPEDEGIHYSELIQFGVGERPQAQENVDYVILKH

Activity [1]	other results	SMILES
inactive		CC(=O)N[C@@H]1[C@@H](O)C[C@](OC[C@H]2O[C@H](Oc3ccccc3[N+](=O)[O-])[C@H](NC(C)=O)[C@@H](O[C@@H]3O[C@H](COS(=O)(=O)O)[C@H](O)[C@H](O)[C@H]3O)[C@H]2O)(C(=O)O)O[C@H]1C(O)C(O)CO (stereo partly drawn)
	Activity [2]: inactive	CC(=O)N[C@@H]1[C@@H](O)C[C@](OC[C@H]2O[C@@H](Oc3ccc([N+](=O)[O-])cc3)[C@H](NC(C)=O)[C@@H](O[C@@H]3O[C@H](COS(=O)(=O)O)[C@H](O)[C@H](O)[C@H]3O)[C@@H]2O)(C(=O)O)O[C@H]1C(O)C(O)CO (stereo partly drawn)
	Activity [3]: inactive	O=C(CBr)OCC1OC(Br)C(OC(=O)c2ccccc2)C(OC(=O)c2ccccc2)C1OC(=O)c1ccccc1 (stereo not drawn)
inactive		CC(=O)N[C@@H]1[C@@H](Oc2ccccc2[N+](=O)[O-])O[C@@H](CO)[C@H](O)[C@@H]1O[C@@H]1O[C@@H](CO)[C@H](O)[C@H](OS(=O)(=O)O)[C@@H]1O
inactive		CC(=O)N[C@@H]1[C@@H](Oc2ccccc2[N+](=O)[O-])O[C@@H](CO)[C@H](O)[C@@H]1O[C@@H]1O[C@@H](COS(=O)(=O)O)[C@H](O)[C@H](O)[C@@H]1O
inactive		CC(=O)OCC1OC(Br)C(OC(C)=O)C(OC(=O)CCl)C1OC(C)=O (stereo not drawn)
	Activity [2]: inactive	CC(=O)N[C@@H]1[C@@H](O)C[C@](OC[C@H]2O[C@@H](Oc3ccc([N+](=O)[O-])cc3)[C@H](NC(C)=O)[C@@H](O[C@@H]3O[C@H](CO)[C@H](O)[C@H](O)[C@H]3O)[C@@H]2O)(C(=O)O)O[C@H]1C(O)C(O)CO (stereo partly drawn)
inactive		CC(=O)N[C@@H]1[C@@H](Oc2ccccc2[N+](=O)[O-])O[C@@H](COS(=O)(=O)O)[C@H](O)[C@@H]1O[C@@H]1O[C@@H](COS(=O)(=O)O)[C@H](O)[C@H](O)[C@@H]1O
